Source: ChEMBL document CHEMBL1122462, “Potential antiatherosclerotic agents. 4. [(Functionalized-alkyl)amino]benzoic acid analogues of cetaben” (1983)
Where “and” joins values, the source holds several entries; their conditions need not be identical. Equal values may be shown once.

Key:
[1] = molecular target: T1, Sterol O-acyltransferase 1 (Rattus norvegicus) (UniProt O70536); assay: In vitro inhibitory activity against acyl coenzyme A:cholesterol acyltransferase; parameters: concentration or dose not given beside the values; details: concentration not given here
T1 sequence (whole entry): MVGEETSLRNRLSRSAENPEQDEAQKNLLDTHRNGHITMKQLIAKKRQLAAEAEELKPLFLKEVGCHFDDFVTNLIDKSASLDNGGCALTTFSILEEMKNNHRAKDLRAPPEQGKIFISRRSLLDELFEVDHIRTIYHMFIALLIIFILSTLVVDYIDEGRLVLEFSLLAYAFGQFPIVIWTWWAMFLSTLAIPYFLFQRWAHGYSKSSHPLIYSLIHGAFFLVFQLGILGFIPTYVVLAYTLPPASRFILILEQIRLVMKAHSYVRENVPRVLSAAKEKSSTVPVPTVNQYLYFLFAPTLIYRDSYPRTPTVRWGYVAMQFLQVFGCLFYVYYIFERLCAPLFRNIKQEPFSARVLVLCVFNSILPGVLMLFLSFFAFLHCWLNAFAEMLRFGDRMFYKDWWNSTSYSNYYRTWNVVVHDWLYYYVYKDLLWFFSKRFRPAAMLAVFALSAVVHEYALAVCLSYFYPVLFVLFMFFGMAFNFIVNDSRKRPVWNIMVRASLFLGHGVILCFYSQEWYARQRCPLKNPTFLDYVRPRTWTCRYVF

Rattus norvegicus [2] = assay: In vivo sterol lowering activity at dose of 0.10 % of the diet; assay type: functional
Rattus norvegicus [3] = assay: In vivo Triglyceride lowering activity at a dose of 0.10 % of the diet; assay type: functional
Rattus norvegicus [4] = assay: In vivo Triglyceride lowering activity at dose as 0.03 % of the diet; assay type: functional
Rattus norvegicus [5] = assay: In vivo sterol lowering activity, dosed as 0.03 % of the diet; assay type: functional
Rattus norvegicus [6] = assay: In vivo Triglyceride lowering activity at dose as 0.01 % of the diet; assay type: functional
Rattus norvegicus [7] = assay: In vivo Sterol lowering activity at dose as 0.01% of the diet; assay type: functional

inhibition [1] | Structure (SMILES) | serum sterol level, % of control (Rattus norvegicus [2]) [%] | serum triglyceride level (% of control) (Rattus norvegicus [3]) [%] | triglyceride lowering activity (Rattus norvegicus [4]) [%] | serum sterol level, percent of control (Rattus norvegicus [5]) [%] | serum triglyceride level (% of control) (Rattus norvegicus [6]) [%] | serum sterol level, percent of control (Rattus norvegicus [7]) [%]
< 59% | CCCCCCCCCCC(C)(O)CCCCCNc1ccc(C(=O)OCC)cc1 (configuration not stated) | <82 | <28 | – | – | – | –
< 53% | CCCCCCCCCCC(C)(O)CCCCCNc1ccc(C(=O)O)cc1 (configuration not stated) | <73 | <37 | – | – | – | –
0% and 9% | O=C(O)CCCCCCCCCCCCCCCNc1ccc(C(=O)O)cc1 | – | – | – | – | – | –
< 10% | CCOC(=O)c1ccc(NCCCCCCCCCCCCCCCCSCC)cc1 | <89 | <58 | – | – | – | –
< 62% | CCCCOCCCCCCCCCCCNc1ccc(C(=O)O)cc1 | 91 | <44 | – | – | 74 | <86
< 60% | CCOC(=O)c1ccc(NCCCCCCCCCCCO)cc1 | 94 | 93 | – | – | – | –
2% | CCOC(=O)c1ccc(NCCCCCCCCCCCCNc2ccc(C(=O)OCC)cc2)cc1 | 103 | <68 | – | – | – | –
< 74% | CC(C)(C)CCCCCCCCCCCCCCNc1ccc(C(=O)O)cc1 | – | – | – | – | – | –
< 79% | CCCCCCCCCCC(S)CCCCCNc1ccc(C(=O)O)cc1 (configuration not stated) | 84 | <43 | – | – | – | –
< 91% | Br.CCOC(=O)c1ccc(NC(=O)CCCCCCCCCCSC(=N)N)cc1 | 92 | 96 | – | – | – | –
8% | CCOC(=O)c1ccc(NCCCCCCCCCCCCCCCCS)cc1 | 90 | <51 | – | – | – | –
< 60% | C[Si](C)(C)CCCCCCCCCCCCCCNc1ccc(C(=O)O)cc1 [listing 2 of 2 here] | – | – | – | – | – | –
< 51% | CCCCCCCCCCC(O)CCCCCNc1ccc(C(=O)OCC)cc1 (configuration not stated) | 93 | <39 | – | – | – | –
< 26% | CCCCCCCCCCC(CCCCCNc1ccc(C(=O)OCC)cc1)SC(C)=O (configuration not stated) | 94 | <46 | – | – | – | –
< 68% | CCOC(=O)c1ccc(NCCCCCCCCCCCNc2ccc(C(=O)OCC)cc2)cc1 | 92 | 67 | – | – | – | –
12% | CCOC(=O)c1ccc(NCCCCCCCCCCCC2CCCCC2)cc1 | 80 | <50 | – | – | – | –
< 45% | CCOC(=O)c1ccc(NCCCCCCCCCCCSc2ccc(C(=O)OCC)cc2)cc1 | 102 | 132 | – | – | – | –

Second part, the molecule before the results:

Structure (SMILES) | inhibition [1] | serum sterol level, % of control (Rattus norvegicus [2]) [%] | serum triglyceride level (% of control) (Rattus norvegicus [3]) [%] | triglyceride lowering activity (Rattus norvegicus [4]) [%] | serum sterol level, percent of control (Rattus norvegicus [5]) [%] | serum triglyceride level (% of control) (Rattus norvegicus [6]) [%] | serum sterol level, percent of control (Rattus norvegicus [7]) [%]
C[Si](C)(C)CCCCCCCCCCCNc1ccc(C(=O)[O-])cc1.[Na+] | – | <48 | <46 | 88 | <73 | 122 | <81
O=C(O)c1ccc(NCCCCCCCCCCCSc2ccc(C(=O)O)cc2)cc1 | < 29% | 98 | 78 | 92 | 104 | – | –
CCCCCCCCCCCCCCCCN(CS(=O)(=O)[O-])c1ccc(C(=O)[O-])cc1.[Na+].[Na+] | – | <75 | 89 | 95 | 91 | 77 | 89
CCCCCCCCCCCCCCCC(=O)Nc1ccc(C(=O)OCC)cc1 | – | 91 | – | – | – | – | –
O=C(O)c1ccc(NCCCCCCCCCCNc2ccc(C(=O)O)cc2)cc1 | 8% | 93 | 100 | – | – | – | –
C[Si](C)(C)CCCCCCCCCCCCCCNc1ccc(C(=O)[O-])cc1.[Na+] | – | <39 | <22 | <43 | <56 | <55 | 75
CCCCCCCCCCC(O)CCCCCNc1ccc(C(=O)O)cc1 (configuration not stated) | – | <86 | <31 | <43 | 96 | <66 | 104
C[Si](C)(C)CCCCCCCCCCCNc1ccc(C(=O)O)cc1 [listing 1 of 2 here] | – | <44 | <25 | <54 | <69 | <67 | <79
C[Si](C)(C)CCCCCCCCCCCNc1ccc(C(=O)O)cc1 [listing 2 of 2 here] | < 56% | – | – | – | – | – | –
CCCCSCCCCCCCCCCC(=O)Nc1ccc(C(=O)OC)cc1 | < 56% | 92 | 81 | – | – | – | –
CCCCCCCCCC/C(CCCCCNc1ccc(C(=O)O)cc1)=N/O | – | <75 | <31 | <30 | <84 | <52 | 86
CCOC(=O)c1ccc(NCCCCCCCCCCCOc2ccc(C(=O)OC)cc2)cc1 | < 52% | 100 | <72 | – | – | – | –
CCOC(=O)c1ccc(N(CCCCCCCCCCCBr)C(=O)OCc2ccccc2)cc1 | < 71% | 100 | 91 | – | – | – | –
O=C(O)c1ccc(NCCCCCCCCCCCCCCCC(F)(F)F)cc1 | – | <61 | <42 | <41 | <72 | <46 | <75
C[Si](C)(C)CCCNc1ccc(C(=O)O)cc1 | < 23% and 12% | – | – | – | – | – | –
COC(=O)c1ccc(NC(=O)CCCCCCCCCCOc2ccc(C(=O)OC)cc2)cc1 | < 63% | 94 | 118 | – | – | – | –
C[Si](C)(C)CCCNc1ccc(C(=O)[O-])cc1.[Na+] | – | <64 | <77 | 85 | <82 | 102 | 87
CC(C)(C)CCCCCCCCCCCCCCNc1ccc(C(=O)[O-])cc1.[Na+] | – | <44 | <30 | <55 | <53 | <66 | <72
CCOC(=O)c1ccc(NC(=O)CCCCCCCCCCBr)cc1 | < 71% | 115 | 100 | – | – | – | –
C[Si](C)(C)CCCCCCCCCCCCCCNc1ccc(C(=O)O)cc1 [listing 1 of 2 here] | – | <40 | <30 | <38 | <51 | <59 | <70
O=C([O-])CCCCCCCCCCCCCCCNc1ccc(C(=O)[O-])cc1.[Na+].[Na+] | – | 106 | 132 | 97 | 102 | 93 | 102
CCOC(=O)c1ccc(NCCCCCCCCCCNc2ccc(C(=O)OCC)cc2)cc1 | 7% | 140 | 98 | – | – | – | –
O=C(O)c1ccc(NCCCCCCCCCCCCNc2ccc(C(=O)O)cc2)cc1 | < 60% | 103 | 89 | – | – | – | –
O=C([O-])c1ccc(NCCCCCCCCCCCCCCCC(F)(F)F)cc1.[Na+] | – | <34 | <21 | <39 | <62 | <63 | <75
CCOC(=O)c1ccc(NC(=O)C(F)(F)C(F)(F)C(F)(F)C(F)(F)C(F)(F)C(F)(F)C(F)(F)F)cc1 | 0% | <69 | – | <43 | <73 | <61 | <68
O=C(O)c1ccc(N2CCCC2=O)cc1 | 0% | – | – | – | – | – | –
CCCCCCCCCCCCCCCCN(CS(=O)(=O)O)c1ccc(C(=O)O)cc1 | 7% and < 32% | – | – | – | – | – | –
COCCCCCCCCCCCCCCCCN(C(C)=O)c1ccc(C(=O)O)cc1 | < 22% | 100 | 93 | – | – | – | –
